Measured values published in publication PMC11842588, “A first-in-class selective inhibitor of ERK1/2 and ERK5 overcomes drug resistance with a single-molecule strategy” (Signal Transduction and Targeted Therapy, 2025).

Columns and labels:
Assay in all cases: Kinase profiling
Assay type in all cases: biochemical
[1] = molecular target: T1, Pyk2(h) (Homo sapiens, UniProt Q14289)
T1 construct: purchased Eurofins Cerep SA (KinaseProfiler)
Method: (§1) 380 kinases inhibitory activities of SKLB-D18 were conducted by Eurofins Cerep SA. The result was illustrated by kinase tree (http://www.kinhub.org/kinmap/).

[2] = molecular target: T2, MST2(h) (Homo sapiens, UniProt Q13188)
T2 construct: purchased Eurofins Cerep SA (KinaseProfiler)
Method: as §1

[3] = molecular target: T3, MSSK1(h) (Homo sapiens, UniProt Q9UPE1)
T3 construct: purchased Eurofins Cerep SA (KinaseProfiler)
Method: as §1

[4] = molecular target: T4, Aurora-C(h) (Homo sapiens, UniProt Q9UQB9)
T4 construct: purchased Eurofins Cerep SA (KinaseProfiler)
Method: as §1

[5] = molecular target: T5, ACK1(h) (Homo sapiens, UniProt Q07912)
T5 construct: purchased Eurofins Cerep SA (KinaseProfiler)
Method: as §1

[6] = molecular target: T6, MAPK3(h) (Homo sapiens, UniProt P27361)
T6 construct: purchased Eurofins Cerep SA (KinaseProfiler)
Method: as §1

[7] = molecular target: T7, MAP4K4(h) (Homo sapiens, UniProt O95819)
T7 construct: purchased Eurofins Cerep SA (KinaseProfiler)
Method: as §1

[8] = molecular target: T8, TAO2(h) (Homo sapiens, UniProt Q9UL54)
T8 construct: purchased Eurofins Cerep SA (KinaseProfiler)
Method: as §1

[9] = molecular target: T9, FGFR1(h) (Homo sapiens, UniProt P11362)
T9 construct: purchased Eurofins Cerep SA (KinaseProfiler)
Method: as §1

[10] = molecular target: T10, EGFR(h) (Homo sapiens, UniProt P00533)
T10 construct: purchased Eurofins Cerep SA (KinaseProfiler)
Method: as §1

[11] = molecular target: T11, LRRK2(h) (Homo sapiens, UniProt Q5S007)
T11 construct: purchased Eurofins Cerep SA (KinaseProfiler)
Method: as §1

[12] = molecular target: T12, MSK2(h) (Homo sapiens, UniProt O75676)
T12 construct: purchased Eurofins Cerep SA (KinaseProfiler)
Method: as §1

[13] = molecular target: T13, PAK2(h) (Homo sapiens, UniProt Q13177)
T13 construct: purchased Eurofins Cerep SA (KinaseProfiler)
Method: as §1

[14] = molecular target: T14, CaMKI(h) (Homo sapiens, UniProt Q14012)
T14 construct: purchased Eurofins Cerep SA (KinaseProfiler)
Method: as §1

[15] = molecular target: T15, CDK16/cyclinY(h) (Homo sapiens, UniProt Q00536)
T15 construct: purchased Eurofins Cerep SA (KinaseProfiler)
Method: as §1

[16] = molecular target: T16, MYO3B(h) (Homo sapiens, UniProt Q8WXR4)
T16 construct: purchased Eurofins Cerep SA (KinaseProfiler)
Method: as §1

[17] = molecular target: T17, CDK2/cyclinA(h) (Homo sapiens, UniProt P24941)
T17 construct: purchased Eurofins Cerep SA (KinaseProfiler)
Method: as §1

[18] = molecular target: T18, MARK1(h) (Homo sapiens, UniProt Q9P0L2)
T18 construct: purchased Eurofins Cerep SA (KinaseProfiler)
Method: as §1

[19] = molecular target: T19, CaMKIV(h) (Homo sapiens, UniProt Q16566)
T19 construct: purchased Eurofins Cerep SA (KinaseProfiler)
Method: as §1

[20] = molecular target: T20, PIP4K2a(h) (Homo sapiens, UniProt P48426)
T20 construct: purchased Eurofins Cerep SA (KinaseProfiler)
Method: as §1

[21] = molecular target: T21, PKBα(h) (Homo sapiens, UniProt P31749)
T21 construct: purchased Eurofins Cerep SA (KinaseProfiler)
Method: as §1

[22] = molecular target: T22, IKKα(h) (Homo sapiens, UniProt O15111)
T22 construct: purchased Eurofins Cerep SA (KinaseProfiler)
Method: as §1

[23] = molecular target: T23, ZAK(h) (Homo sapiens, UniProt Q9NYL2)
T23 construct: purchased Eurofins Cerep SA (KinaseProfiler)
Method: as §1

[24] = molecular target: T24, A-Raf(h) (Homo sapiens, UniProt P10398)
T24 construct: purchased Eurofins Cerep SA (KinaseProfiler)
Method: as §1

[25] = molecular target: T25, PDK1(h) (Homo sapiens, UniProt O15530)
T25 construct: purchased Eurofins Cerep SA (KinaseProfiler)
Method: as §1

[26] = molecular target: T26, STK16(h) (Homo sapiens, UniProt O75716)
T26 construct: purchased Eurofins Cerep SA (KinaseProfiler)
Method: as §1

[27] = molecular target: T27, OSR1(h) (Homo sapiens, UniProt O95747)
T27 construct: purchased Eurofins Cerep SA (KinaseProfiler)
Method: as §1

[28] = molecular target: T28, LKB1(h) (Homo sapiens, UniProt Q15831)
T28 construct: purchased Eurofins Cerep SA (KinaseProfiler)
Method: as §1

[29] = molecular target: T29, Aurora-B(h) (Homo sapiens, UniProt Q96GD4)
T29 construct: purchased Eurofins Cerep SA (KinaseProfiler)
Method: as §1

[30] = molecular target: T30, mTOR(h) (Homo sapiens, UniProt P42345)
T30 construct: purchased Eurofins Cerep SA (KinaseProfiler)
Method: as §1

[31] = molecular target: T31, CaMKIβ(h) (Homo sapiens, UniProt Q6P2M8)
T31 construct: purchased Eurofins Cerep SA (KinaseProfiler)
Method: as §1

[32] = molecular target: T32, WNK3(h) (Homo sapiens, UniProt Q9BYP7)
T32 construct: purchased Eurofins Cerep SA (KinaseProfiler)
Method: as §1

[33] = molecular target: T33, CDK5/p25(h) (Homo sapiens, UniProt Q00535)
T33 construct: purchased Eurofins Cerep SA (KinaseProfiler)
Method: as §1

[34] = molecular target: T34, PAK6(h) (Homo sapiens, UniProt Q9NQU5)
T34 construct: purchased Eurofins Cerep SA (KinaseProfiler)
Method: as §1

[35] = molecular target: T35, PKCα(h) (Homo sapiens, UniProt P17252)
T35 construct: purchased Eurofins Cerep SA (KinaseProfiler)
Method: as §1

[36] = molecular target: T36, mTOR/FKBP12(h) (Homo sapiens, UniProt P42345)
T36 construct: purchased Eurofins Cerep SA (KinaseProfiler)
Method: as §1

[37] = molecular target: T37, DYRK2(h) (Homo sapiens, UniProt Q92630)
T37 construct: purchased Eurofins Cerep SA (KinaseProfiler)
Method: as §1

[38] = molecular target: T38, TrkC(h) (Homo sapiens, UniProt Q16288)
T38 construct: purchased Eurofins Cerep SA (KinaseProfiler)
Method: as §1

[39] = molecular target: T39, TAO1(h) (Homo sapiens, UniProt Q7L7X3)
T39 construct: purchased Eurofins Cerep SA (KinaseProfiler)
Method: as §1

[40] = molecular target: T40, CDK7/cyclinH/MAT1(h) (Homo sapiens, UniProt P50613)
T40 construct: purchased Eurofins Cerep SA (KinaseProfiler)
Method: as §1

[41] = molecular target: T41, GRK4(h) (Homo sapiens, UniProt P32298)
T41 construct: purchased Eurofins Cerep SA (KinaseProfiler)
Method: as §1

T28 sequence (Q15831 whole entry): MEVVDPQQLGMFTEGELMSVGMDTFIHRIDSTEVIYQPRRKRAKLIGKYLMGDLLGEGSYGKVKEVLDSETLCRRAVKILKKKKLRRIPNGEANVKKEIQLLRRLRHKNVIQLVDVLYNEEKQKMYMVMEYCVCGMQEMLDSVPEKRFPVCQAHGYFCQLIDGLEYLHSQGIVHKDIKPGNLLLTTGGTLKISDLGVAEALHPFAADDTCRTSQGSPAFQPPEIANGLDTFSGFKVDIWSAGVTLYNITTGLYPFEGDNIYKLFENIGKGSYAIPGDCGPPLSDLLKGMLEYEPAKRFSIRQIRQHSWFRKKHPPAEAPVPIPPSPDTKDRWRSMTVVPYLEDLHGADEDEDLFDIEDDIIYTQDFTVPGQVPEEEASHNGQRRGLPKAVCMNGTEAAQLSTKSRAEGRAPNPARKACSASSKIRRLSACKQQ
T28 sequence (Q7RTN6 whole entry partner): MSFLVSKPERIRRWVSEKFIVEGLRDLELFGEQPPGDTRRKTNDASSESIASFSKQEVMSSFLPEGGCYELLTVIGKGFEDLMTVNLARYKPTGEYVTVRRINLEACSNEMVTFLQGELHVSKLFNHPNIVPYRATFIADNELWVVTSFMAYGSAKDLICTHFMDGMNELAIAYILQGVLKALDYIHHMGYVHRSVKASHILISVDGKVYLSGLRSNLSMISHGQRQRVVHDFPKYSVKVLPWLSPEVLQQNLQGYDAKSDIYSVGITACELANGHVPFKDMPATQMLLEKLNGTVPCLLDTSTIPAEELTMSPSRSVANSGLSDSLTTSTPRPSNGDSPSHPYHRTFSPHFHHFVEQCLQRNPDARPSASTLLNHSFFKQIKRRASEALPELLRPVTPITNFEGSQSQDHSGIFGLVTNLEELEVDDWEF
T28 sequence (Q9Y376 whole entry partner): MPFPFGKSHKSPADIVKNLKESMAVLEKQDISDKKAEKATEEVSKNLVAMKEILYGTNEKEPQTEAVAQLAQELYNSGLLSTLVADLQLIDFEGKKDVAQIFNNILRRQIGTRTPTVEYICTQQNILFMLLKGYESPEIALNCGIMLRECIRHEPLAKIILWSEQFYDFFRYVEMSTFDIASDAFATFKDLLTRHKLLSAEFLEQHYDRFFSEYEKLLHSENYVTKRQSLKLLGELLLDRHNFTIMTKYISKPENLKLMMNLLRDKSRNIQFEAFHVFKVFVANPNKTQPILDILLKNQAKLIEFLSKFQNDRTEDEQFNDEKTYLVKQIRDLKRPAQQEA
T26 sequence (O75716 whole entry): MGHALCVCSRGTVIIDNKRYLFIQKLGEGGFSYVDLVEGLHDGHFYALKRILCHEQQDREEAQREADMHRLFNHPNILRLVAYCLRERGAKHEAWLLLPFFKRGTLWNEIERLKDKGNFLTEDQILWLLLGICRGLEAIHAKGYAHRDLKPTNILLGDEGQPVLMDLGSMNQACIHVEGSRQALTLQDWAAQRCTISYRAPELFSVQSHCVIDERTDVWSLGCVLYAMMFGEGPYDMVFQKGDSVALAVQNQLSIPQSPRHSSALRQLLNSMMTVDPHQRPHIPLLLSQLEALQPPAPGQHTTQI
T37 sequence (Q92630 whole entry): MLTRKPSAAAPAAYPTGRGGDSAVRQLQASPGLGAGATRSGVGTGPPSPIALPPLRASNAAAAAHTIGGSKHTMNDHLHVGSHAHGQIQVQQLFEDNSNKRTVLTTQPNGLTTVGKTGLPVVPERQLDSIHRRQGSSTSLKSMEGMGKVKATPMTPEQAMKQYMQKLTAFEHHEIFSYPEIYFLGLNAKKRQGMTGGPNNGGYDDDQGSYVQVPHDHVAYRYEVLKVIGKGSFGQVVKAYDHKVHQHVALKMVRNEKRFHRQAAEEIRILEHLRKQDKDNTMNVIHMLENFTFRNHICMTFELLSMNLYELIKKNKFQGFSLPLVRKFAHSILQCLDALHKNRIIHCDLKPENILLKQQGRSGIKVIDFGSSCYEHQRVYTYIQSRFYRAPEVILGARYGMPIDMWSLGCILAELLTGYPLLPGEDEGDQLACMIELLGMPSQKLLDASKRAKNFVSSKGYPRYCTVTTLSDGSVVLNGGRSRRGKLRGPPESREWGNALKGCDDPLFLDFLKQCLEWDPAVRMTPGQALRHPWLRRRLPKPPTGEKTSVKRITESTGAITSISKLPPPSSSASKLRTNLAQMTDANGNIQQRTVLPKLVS
T27 sequence (O95747 whole entry): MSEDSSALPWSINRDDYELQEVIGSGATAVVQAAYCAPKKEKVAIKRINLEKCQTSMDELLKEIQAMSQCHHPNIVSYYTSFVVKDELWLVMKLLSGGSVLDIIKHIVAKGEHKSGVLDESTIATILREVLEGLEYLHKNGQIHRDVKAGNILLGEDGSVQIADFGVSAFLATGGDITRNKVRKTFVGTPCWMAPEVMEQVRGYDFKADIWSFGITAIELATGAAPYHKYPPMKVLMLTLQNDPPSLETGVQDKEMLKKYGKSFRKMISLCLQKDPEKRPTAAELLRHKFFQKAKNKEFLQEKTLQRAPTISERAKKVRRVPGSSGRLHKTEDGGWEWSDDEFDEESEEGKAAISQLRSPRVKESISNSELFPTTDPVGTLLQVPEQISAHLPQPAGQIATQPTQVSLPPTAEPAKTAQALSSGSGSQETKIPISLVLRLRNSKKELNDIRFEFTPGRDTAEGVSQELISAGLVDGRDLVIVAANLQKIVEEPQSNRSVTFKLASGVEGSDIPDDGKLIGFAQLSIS
T3 sequence (Q9UPE1 whole entry): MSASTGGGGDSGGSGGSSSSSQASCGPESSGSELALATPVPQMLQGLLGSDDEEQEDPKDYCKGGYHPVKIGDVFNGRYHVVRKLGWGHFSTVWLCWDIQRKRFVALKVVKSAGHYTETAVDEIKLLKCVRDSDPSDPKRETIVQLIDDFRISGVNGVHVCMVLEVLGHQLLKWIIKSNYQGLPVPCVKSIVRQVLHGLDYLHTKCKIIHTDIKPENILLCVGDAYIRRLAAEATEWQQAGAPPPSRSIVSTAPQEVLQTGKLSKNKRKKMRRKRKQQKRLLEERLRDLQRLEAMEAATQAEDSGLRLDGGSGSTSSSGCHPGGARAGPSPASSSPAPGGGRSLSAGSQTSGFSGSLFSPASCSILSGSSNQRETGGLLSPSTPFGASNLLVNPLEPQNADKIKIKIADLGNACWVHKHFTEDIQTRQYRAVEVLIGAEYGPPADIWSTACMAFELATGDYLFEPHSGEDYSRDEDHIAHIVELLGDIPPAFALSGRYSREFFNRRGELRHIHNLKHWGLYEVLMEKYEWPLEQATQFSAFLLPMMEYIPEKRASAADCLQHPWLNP
T15 sequence (Q00536 whole entry): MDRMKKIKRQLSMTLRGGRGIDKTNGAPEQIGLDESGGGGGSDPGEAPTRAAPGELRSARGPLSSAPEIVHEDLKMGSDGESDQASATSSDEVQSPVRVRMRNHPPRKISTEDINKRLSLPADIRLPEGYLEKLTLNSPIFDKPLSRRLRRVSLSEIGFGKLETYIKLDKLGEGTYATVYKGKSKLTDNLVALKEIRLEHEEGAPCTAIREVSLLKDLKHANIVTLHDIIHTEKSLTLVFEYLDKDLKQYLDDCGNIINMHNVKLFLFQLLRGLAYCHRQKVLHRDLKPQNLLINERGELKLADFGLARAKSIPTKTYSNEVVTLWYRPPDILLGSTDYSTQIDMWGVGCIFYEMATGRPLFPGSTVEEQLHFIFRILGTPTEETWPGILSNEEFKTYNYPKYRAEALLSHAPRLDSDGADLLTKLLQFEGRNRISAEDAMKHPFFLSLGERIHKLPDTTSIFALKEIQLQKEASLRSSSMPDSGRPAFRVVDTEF
T15 sequence (Q8ND76 whole entry partner): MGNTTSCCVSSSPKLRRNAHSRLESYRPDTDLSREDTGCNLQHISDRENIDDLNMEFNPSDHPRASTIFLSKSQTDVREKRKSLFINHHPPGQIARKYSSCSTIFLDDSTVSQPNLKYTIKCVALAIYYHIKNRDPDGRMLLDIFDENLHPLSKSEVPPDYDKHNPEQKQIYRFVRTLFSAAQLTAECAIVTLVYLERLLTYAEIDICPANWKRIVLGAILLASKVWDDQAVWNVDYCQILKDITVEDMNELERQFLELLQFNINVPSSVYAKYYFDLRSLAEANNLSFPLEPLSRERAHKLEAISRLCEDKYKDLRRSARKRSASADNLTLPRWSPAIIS
T13 sequence (Q13177 whole entry): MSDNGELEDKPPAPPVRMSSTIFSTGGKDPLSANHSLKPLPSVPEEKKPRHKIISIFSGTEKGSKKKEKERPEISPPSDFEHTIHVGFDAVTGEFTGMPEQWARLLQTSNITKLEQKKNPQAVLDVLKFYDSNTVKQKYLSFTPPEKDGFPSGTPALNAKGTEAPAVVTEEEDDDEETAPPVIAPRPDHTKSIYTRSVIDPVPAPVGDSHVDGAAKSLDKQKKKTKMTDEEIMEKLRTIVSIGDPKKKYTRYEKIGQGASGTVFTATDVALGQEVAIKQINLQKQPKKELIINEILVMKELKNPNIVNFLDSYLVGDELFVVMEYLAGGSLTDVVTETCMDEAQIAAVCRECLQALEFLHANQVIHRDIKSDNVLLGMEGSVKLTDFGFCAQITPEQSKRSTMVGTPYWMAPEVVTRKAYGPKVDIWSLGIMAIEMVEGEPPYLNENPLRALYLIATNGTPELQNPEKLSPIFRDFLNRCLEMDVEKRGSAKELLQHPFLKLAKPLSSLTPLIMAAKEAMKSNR
T4 sequence (Q9UQB9 whole entry): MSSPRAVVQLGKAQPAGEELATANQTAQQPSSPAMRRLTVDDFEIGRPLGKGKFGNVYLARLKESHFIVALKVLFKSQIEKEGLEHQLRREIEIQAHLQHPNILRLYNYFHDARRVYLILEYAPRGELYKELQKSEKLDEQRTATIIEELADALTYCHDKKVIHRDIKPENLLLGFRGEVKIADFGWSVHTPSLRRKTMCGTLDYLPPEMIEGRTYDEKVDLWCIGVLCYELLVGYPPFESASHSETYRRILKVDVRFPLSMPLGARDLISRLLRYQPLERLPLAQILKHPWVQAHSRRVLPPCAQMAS

Question: With CN(C)Cc1cccc(Nc2ncc(Cl)c(-c3csc(C(=O)NN4CCOCC4)c3)n2)c1 [SKLB-D18, 4-(5-chloro-2-((3-((dimethylamino)methyl)phenyl)amino)pyrimidin-4-yl)-N-morpholinothiophene-2-carboxamide] as the compound, how does the inhibition at 1 µM [1] read?
Answer: The inhibition at 1 µM was 46%.

Question: What about the inhibition at 1 µM [2] of the same compound?
Answer: Its inhibition at 1 µM is 40%.

Question: And the inhibition at 1 µM [3]?
Answer: The inhibition at 1 µM was -19%.

Question: And the inhibition at 1 µM [4]?
Answer: Its inhibition at 1 µM is 66%.

Question: And the inhibition at 1 µM [5]?
Answer: Its inhibition at 1 µM is 14%.

Question: And the inhibition at 1 µM [6]?
Answer: The inhibition at 1 µM was 96%.

Question: And the inhibition at 1 µM [7]?
Answer: Its inhibition at 1 µM is 14%.

Question: What about the inhibition at 1 µM [8] of the same compound?
Answer: The inhibition at 1 µM was 64%.

Question: And the inhibition at 1 µM [9]?
Answer: The inhibition at 1 µM was 70%.

Question: And the inhibition at 1 µM [10]?
Answer: Its inhibition at 1 µM is -10%.

Question: What about the inhibition at 1 µM [11] of the same compound?
Answer: Its inhibition at 1 µM is 65%.

Question: And the inhibition at 1 µM [12]?
Answer: The inhibition at 1 µM was 16%.

Question: And the inhibition at 1 µM [13]?
Answer: The inhibition at 1 µM was 12%.

Question: And the inhibition at 1 µM [14]?
Answer: The inhibition at 1 µM was 16%.

Question: What about the inhibition at 1 µM [15] of the same compound?
Answer: Its inhibition at 1 µM is 66%.

Question: And the inhibition at 1 µM [16]?
Answer: Its inhibition at 1 µM is 4%.

Question: What about the inhibition at 1 µM [17] of the same compound?
Answer: Its inhibition at 1 µM is 58%.

Question: And the inhibition at 1 µM [18]?
Answer: Its inhibition at 1 µM is 64%.

Question: And the inhibition at 1 µM [19]?
Answer: The inhibition at 1 µM was 24%.

Question: And the inhibition at 1 µM [20]?
Answer: Its inhibition at 1 µM is -1%.

Question: What about the inhibition at 1 µM [21] of the same compound?
Answer: Its inhibition at 1 µM is 12%.

Question: What about the inhibition at 1 µM [22] of the same compound?
Answer: Its inhibition at 1 µM is 34%.

Question: And the inhibition at 1 µM [23]?
Answer: The inhibition at 1 µM was 5%.

Question: And the inhibition at 1 µM [24]?
Answer: Its inhibition at 1 µM is 63%.

Question: What about the inhibition at 1 µM [25] of the same compound?
Answer: Its inhibition at 1 µM is 42%.

Question: What about the inhibition at 1 µM [26] of the same compound?
Answer: Its inhibition at 1 µM is 85%.

Question: And the inhibition at 1 µM [27]?
Answer: The inhibition at 1 µM was 28%.

Question: What about the inhibition at 1 µM [28] of the same compound?
Answer: The inhibition at 1 µM was 29%.

Question: And the inhibition at 1 µM [29]?
Answer: The inhibition at 1 µM was 66%.

Question: And the inhibition at 1 µM [30]?
Answer: Its inhibition at 1 µM is -4%.

Question: What about the inhibition at 1 µM [31] of the same compound?
Answer: Its inhibition at 1 µM is 1%.

Question: What about the inhibition at 1 µM [32] of the same compound?
Answer: Its inhibition at 1 µM is 9%.

Question: What about the inhibition at 1 µM [33] of the same compound?
Answer: Its inhibition at 1 µM is 55%.

Question: What about the inhibition at 1 µM [34] of the same compound?
Answer: Its inhibition at 1 µM is 10%.

Question: And the inhibition at 1 µM [35]?
Answer: Its inhibition at 1 µM is 21%.

Question: And the inhibition at 1 µM [36]?
Answer: The inhibition at 1 µM was 8%.

Question: And the inhibition at 1 µM [37]?
Answer: Its inhibition at 1 µM is 41%.

Question: And the inhibition at 1 µM [38]?
Answer: The inhibition at 1 µM was 43%.

Question: What about the inhibition at 1 µM [39] of the same compound?
Answer: Its inhibition at 1 µM is 62%.

Question: What about the inhibition at 1 µM [40] of the same compound?
Answer: Its inhibition at 1 µM is 57%.

Question: What about the inhibition at 1 µM [41] of the same compound?
Answer: Its inhibition at 1 µM is 16%.
